What all share (test): Cytotoxicity assay, SRB colorimetric assay
What all share (type): cell-based

The test system of data set [1] is MDA-MB-231. The following applies: for GI50: 50% cell growth inhibition; for TGI: total cell growth inhibition (cytostatic effect). The text has this: (§1) The aim of this assay is to evaluate the in vitro cytostatic (ability to delay or arrest tumor cell growth) or cytotoxic (ability to kill tumor cells) activity of the samples being tested.
(§2) A colorimetric assay, using sulforhodamine B (SRB) reaction has been adapted to provide a quantitative measurement of cell growth and viability (following the technique described by Skehan et al. J. Natl. Cancer Inst. 1990, 82, 1107-1112).
(§3) This form of assay employs SBS-standard 96-well cell culture microplates (Faircloth et al. Methods in Cell Science, 1988, 11(4), 201-205; Mosmann et al, Journal of Immunological Methods, 1983, 65(1-2), 55-63). All the cell lines used in this study were obtained from the American Type Culture Collection (ATCC) and derive from different types of human cancer.
(§4) Cells were maintained in Dulbecco's Modified Eagle Medium (DMEM) supplemented with 10% Fetal Bovine Serum (FBS), 2 mM L-glutamine, 100 U/mL penicillin and 100 U/mL streptomycin at 37° C., 5% CO2 and 98% humidity. For the experiments, cells were harvested from subconfluent cultures using trypsinization and resuspended in fresh medium before counting and plating.
(§5) Cells were seeded in 96 well microtiter plates, at 5×10^3 cells per well in aliquots of 150 μL, and allowed to attach to the plate surface for 18 hours (overnight) in drug free medium. After that, one control (untreated) plate of each cell line was fixed (as described below) and used for time zero reference value. Culture plates were then treated with test compounds (50 μL aliquots of 4× stock solutions in complete culture medium plus 4% DMSO) using ten serial dilutions (concentrations ranging from 10 to 0.00262 μg/mL) and triplicate cultures (1% final concentration of DMSO). After 72 hours treatment, the antitumor effect was measured by using the SRB methodology: Briefly, cells were washed twice with PBS, fixed for 15 min in 1% glutaraldehyde solution at room temperature, rinsed twice in PBS, and stained in 0.4% SRB solution for 30 min at room temperature. Cells were then rinsed several times with 1% acetic acid solution and air-dried at room temperature. SRB was then extracted in 10 mM trizma base solution and the absorbance measured in an automated spectrophotometric plate reader at 490 nm. Effects on cell growth and survival were estimated by applying the NCl algorithm (Boyd M R and Paull K D. Drug Dev. Res. 1995, 34, 91-104).
(§6) Using the mean±SD of triplicate cultures, a dose-response curve was automatically generated using nonlinear regression analysis. Three reference parameters were calculated (NCI algorithm) by automatic interpolation: GI50=compound concentration that produces 50% cell growth inhibition, as compared to control cultures; TGI=total cell growth inhibition (cytostatic effect), as compared to control cultures, and LC50=compound concentration that produces 50% net cell killing (cytotoxic effect).

Data set [2] deals with HT29. The following applies: for TGI: total cell growth inhibition (cytostatic effect); for GI50: 50% cell growth inhibition.
Excerpt: as §1, §2, §3, §4, §5, §6

Data set [3] concerns A549. The following applies: for TGI / GI50: A549 lung carcinoma (NSCLC), 72 hours treatment; for TGI: total cell growth inhibition (cytostatic effect); for GI50 / CC50: Homo sapiens, A549, 72 h; for GI50: 50% cell growth inhibition; for CC50: read-out: LC50, A549 lung carcinoma (NSCLC), 72 hours treatment, 50% net cell killing (cytotoxic effect).
Excerpt: as §1, §2, §3, §4, §5, §6

Setting [4] is: Homo sapiens, MDA-MB-231, 72 h, MDA-MB-231 breast adenocarcinoma, 72 hours treatment.
Where [5] appears, read: Homo sapiens, MDA-MB-231, 72 h, read-out: LC50, MDA-MB-231 breast adenocarcinoma, 72 hours treatment, 50% net cell killing (cytotoxic effect).
Where [6] appears, read: MDA-MB-231 breast adenocarcinoma, 72 hours treatment.
Where [7] appears, read: HT29 colorectal adenocarcinoma, 72 hours treatment.
Where [8] appears, read: Homo sapiens, HT-29, 72 h, HT29 colorectal adenocarcinoma, 72 hours treatment.
The mark [9] stands for this setting: Homo sapiens, HT-29, 72 h, read-out: LC50, HT29 colorectal adenocarcinoma, 72 hours treatment, 50% net cell killing (cytotoxic effect).

Seven molecules from patent publication US8962602B2, “Anticancer steroidal lactones unsaturated in position 7 (8)” (Pharma Mar, S.A., priority 2010, dated 2015) can be followed below.

Values joined by “and” are separate entries in the source; they are usually repeats but may differ in a detail not shown here. Equal values may be shown once. Read-outs that look alike come from different tables or passages of the source.

For `CO[C@H]1C=C[C@]2(C)[C@H]3CC[C@]4(C)[C@@H](c5ccc(=O)oc5)[C@@H](Cl)C[C@]4(O)C3=CC[C@H]2C1(C)C` [Aegomycin G], the values for the GI50 in data set [1] (setting [4]), in data set [2] (setting [8]) and in data set [3] were 170 nM, 146 nM and 39.2 nM, respectively. Further, the values for the CC50 in data set [1] (setting [5]) and in data set [3] were 1290 nM and 111 nM, respectively. The TGI is listed as 4.36E−7 Molar in data set [1] (setting [6]), 6.75E−7 Molar in data set [2] (setting [7]) and 6.32E−8 Molar in data set [3]. In addition, the LC50 (50% net cell killing) in data set [2] (setting [9]) was 3920 nM.

With `CO[C@H]1[C@H]2O[C@H]2[C@]2(CO)[C@H]3CC[C@]4(C)[C@@H](c5ccc(=O)oc5)C(Cl)(Cl)C[C@]4(O)C3=CC[C@H]2C1(C)C` [Aegomycin B], the GI50 in data set [1] (setting [4]) worked out at 76.1 nM; in data set [2] (setting [8]) it was 30.4 nM; in data set [3], 5.9 nM. For the same molecule, the CC50 in data set [1] (setting [5]) was 381 nM; in data set [3] it was 11.4 nM. Moreover, the TGI amounted to 1.67E−7 Molar in data set [1] (setting [6]), 2.28E−7 Molar in data set [2] (setting [7]) and 7.61E−9 Molar in data set [3]. The LC50 (50% net cell killing) in data set [2] (setting [9]) came out at 3040 nM.

As for `CO[C@H]1[C@H]2O[C@H]2[C@]2(C=O)[C@H]3CC[C@]4(C)[C@@H](c5ccc(=O)oc5)C(Cl)(Cl)C[C@]4(O)C3=CC[C@H]2C1(C)C` [Aegomycin A], the GI50 in data set [1] (setting [4]) was 19.1 nM; in data set [2] (setting [8]), 10.5 nM; in data set [3] it was 3.82 nM. The CC50 is 61.1 nM in data set [1] (setting [5]) and 5.35 nM in data set [3]. Besides, the TGI in data set [1] (setting [6]) is 3.63E−8 Molar; in data set [2] (setting [7]) it was 3.25E−8 Molar; in data set [3], 4.39E−9 Molar. Moreover, the LC50 (50% net cell killing) in data set [2] (setting [9]) came to 115 nM.

Turning to `CO[C@H]1C=C[C@]2(C)[C@H]3C[C@@H](O)[C@]4(C)[C@@H](c5ccc(=O)oc5)C(Cl)(Cl)C[C@]4(O)C3=CC[C@H]2C1(C)C` [Aegomycin D], the GI50 was found to be 64.8 nM in data set [1] (setting [4]), 31.4 nM in data set [2] (setting [8]) and 8.64 nM in data set [3]. For the same molecule, the CC50 worked out at 173 nM in data set [1] (setting [5]) and 18.3 nM in data set [3]. For the same molecule, the TGI in data set [1] (setting [6]) came to 9.81E−8 Molar; in data set [2] (setting [7]), 1.35E−7 Molar; in data set [3], 1.28E−8 Molar. The LC50 (50% net cell killing) in data set [2] (setting [9]) came out at 1450 nM.

Turning to `CO[C@H]1C=C[C@]2(C)[C@H]3CC[C@]4(C)[C@@H](c5ccc(=O)oc5)C(Cl)(Cl)C[C@]4(O)C3=CC[C@H]2C1(C)C` [Aegomycin E], the values for the GI50 in data set [1] (setting [4]), in data set [2] (setting [8]) and in data set [3] were 197 nM, 118 nM and 42.6 nM, respectively. Further, the CC50 amounted to 750 nM in data set [1] (setting [5]) and 75 nM in data set [3]. The results for the TGI in data set [1] (setting [6]), in data set [2] (setting [7]) and in data set [3] were 3.65E−7 Molar, 4.86E−7 Molar and 5.67E−8 Molar, respectively. Besides, the LC50 (50% net cell killing) in data set [2] (setting [9]) worked out at 5270 nM.

`CC1(C)C(=O)C=C[C@]2(C)[C@H]3CC[C@]4(C)[C@@H](c5ccc(=O)oc5)C(Cl)(Cl)C[C@]4(O)C3=CC[C@@H]12` [Aegomycin C]: the results for the GI50 in data set [1] (setting [4]), in data set [2] (setting [8]) and in data set [3] were 62.8 nM, 9.84 nM and 7.54 nM, respectively. The CC50 amounted to 691 nM in data set [1] (setting [5]) and 41.9 nM in data set [3]. Besides, the figures for the TGI in data set [1] (setting [6]), in data set [2] (setting [7]) and in data set [3] were 1.97E−7 Molar, 1.05E−7 Molar and 1.72E−8 Molar, respectively. The LC50 (50% net cell killing) in data set [2] (setting [9]) is greater than 20900 nM.

On to `CC1(C)C(=O)C=C[C@]2(C)[C@H]3CC[C@]4(C)[C@@H](c5ccc(=O)oc5)[C@@H](Cl)C[C@]4(O)C3=CC[C@@H]12` [Aegomycin F], for which the GI50 in data set [1] (setting [4]) is 88 nM; in data set [1] (setting [6]) it was 81.1 nM; in data set [2] (setting [7]), 36.5 nM; in data set [2] (setting [8]), 65.5 nM. Also, the CC50 in data set [1] (setting [5]) was 948 nM; in data set [1] (read-out: LC50, MDA-MB-231 breast adenocarcinoma, 72 hours treatment, 50% net cell killing (cytotoxic effect)), 608 nM. Besides, the TGI in data set [1] (setting [6]) was 2.71E−7 Molar and 2.03E−7 Molar; in data set [2] (setting [7]) it was 4.06E−7 Molar and 2.03E−7 Molar. For the same molecule, the LC50 (50% net cell killing) was found to be 3160 nM in data set [2] (setting [9]) and 4860 nM in data set [2] (read-out: LC50, HT29 colorectal adenocarcinoma, 72 hours treatment, 50% net cell killing (cytotoxic effect)).
